Reference: patent publication US20060122387A1, “Derivatives of chromen-2-one as inhibitors of vegf production in mammalian cells” (CTI Europe S.r.l., priority 2002, published 2006)

System: VEGF promoter (luciferase reporter) in Hep3B cells
Test: Cell-based assay of VEGF gene transcription (VEGF-Luciferase assay)
Conditions: Hep3B cells stably expressing VEGF-luciferase construct; 100 μM desferoxamine, 18 hours; read-out: IC50 (concentration of compound required to cause a 50% reduction of the luciferase signal)
Protocol: Cell-Based Assay of VEGF Gene Transcription (VEGF-Luciferase Assay).
The activity of compounds is determined by a cell-based reporter assay which uses the hepatoma 3B (Hep3B) cell line.
This assay involves the use of a luciferase reporter gene under the direct control of the VEGF promoter. Induction of the hypoxic response using desferoxamine leads to the transcription of luciferase through activation of the VEGF promoter, which in turn leads to an increase in luciferse activity, which can be measured using most of commercially available luciferase assay kits. Molecules which inhibit the activation of the VEGF promoter can thus be detected.
This assay can be run using a Hep3B cell line which stably expresses the VEGF-luciferase construct.
Hep3B cells (ATCC Ref. No. HB-8064) are plated in 6-well plates at 2.5×10^5 cells/well in 2 mL DMEM/10% FCS and are transfected the following day using Fugene 6 (Roche Biochemicals®). Transfection mixtures per well contain 6 μL Fugene 6 transfection reagent, 1 μg of pxp2-VEGF-luciferase reporter (rat VEGF promoter, NCBI GenBank accession no. U22373, Levy et al., 1995), plus pcDNA3.1(+) Neomycin resistance vector (INVITROGEN). […]
Luciferase activity is measured using the Bright Glo Luciferase Assay System (Promega®, see also technical Manual, Part #TM052, Instructions for Use of Products E2620 and E2650, revised 10/00). […]

Q: For CCN(CC)c1ccc2cc(-c3nc(-c4ccccc4)cs3)c(=O)oc2c1 [Example 8], which IC50 is on record?
A: Its IC50 is under 10 µM.
